Laboratory results as given in PubChem BioAssay AID296 (DTP/NCI, 2004).
“And” between values parts separate entries of the source, which are not always exact repeats. Equal values may be shown once. Results filed as inconclusive are left out.

Tested on: MX-1 breast xenograft, nude mice, tumor weight T/C
Assay: NCI In Vivo Anticancer Drug Screen. Data for tumor model Human Mammary Carcinoma MX-1 Xenograft (intrarenal inoculation) in NU/NU Swiss (nude) mice
Details: endpoint: mean tumor weight change, higher = larger tumour
Procedure, shortened: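 Tumor-bearing mice were treated with test compound alongside a vehicle-treated control group. Survival or tumor size was measured, and activity is expressed as the treated-group value divided by the control-group value.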

[1] = dose: 300.0 mg/kg/injection, schedule: Q04DX003 (sc), vehicle: saline with Tween-80
[2] = dose: 600.0 mg/kg/injection, schedule: Q04DX003 (sc), vehicle: saline with Tween-80
[3] = dose: 150.0 mg/kg/injection, schedule: Q04DX003 (sc), vehicle: saline with Tween-80
[4] = dose: 100.0 mg/kg/injection, schedule: Q01DX010 (sc), vehicle: saline with Tween-80
[5] = dose: 200.0 mg/kg/injection, schedule: Q01DX010 (sc), vehicle: saline with Tween-80
[6] = dose: 400.0 mg/kg/injection, schedule: Q01DX010 (sc), vehicle: saline with Tween-80
[7] = dose: 20.0 mg/kg/injection, schedule: Q04DX003 (sc), vehicle: saline
[8] = dose: 75.0 mg/kg/injection, schedule: Q04DX003 (sc), vehicle: saline with Tween-80
[9] = dose: 200.0 mg/kg/injection, schedule: Q01DX010 (sc), vehicle: saline

`c1ccc([Te][Te]c2ccccc2)cc1` was tested, and the T/C (dose: 75.0 mg/kg/injection, schedule: Q04DX003 (ip), vehicle: saline with Tween-80) was 117 % of control, the T/C (dose: 150.0 mg/kg/injection, schedule: Q04DX003 (ip), vehicle: saline with Tween-80) was 80 % of control and the T/C (dose: 300.0 mg/kg/injection, schedule: Q04DX003 (ip), vehicle: saline with Tween-80) was 91 % of control.

In the case of `CN1C(=O)C(=Cc2ccc(O)cc2)C(=O)N(C)C1=O`, the T/C [1] is reported as 96 % of control, the T/C [2] is reported as 92 % of control and the T/C (dose: 1200.0 mg/kg/injection, schedule: Q04DX003 (sc), vehicle: saline with Tween-80) is reported as 99 % of control. For the same compound, the T/C (dose: 2400.0 mg/kg/injection, schedule: Q04DX003 (sc), vehicle: saline with Tween-80) was 107 % of control.

`CO[C@H]1C[C@](C)(O)Cc2cc3c(c(O)c21)C(=O)c1c(O)cc2c(c1C3=O)O[C@@H]1O[C@@]2(C)[C@H](O)[C@@H](N(C)C)[C@@H]1O` was tested, and the T/C (dose: 3.13 mg/kg/injection, schedule: Q01DX010 (sc), vehicle: other) was 93 % of control, the T/C (dose: 6.25 mg/kg/injection, schedule: Q01DX010 (sc), vehicle: other) was 82 % of control and the T/C (dose: 12.5 mg/kg/injection, schedule: Q01DX010 (sc), vehicle: other) was 43 % of control.

For `C=CC(=O)NCNC(=O)C=C`, the T/C (dose: 50.0 mg/kg/injection, schedule: Q01DX010 (sc), vehicle: saline) was 82 % of control and the T/C (dose: 100.0 mg/kg/injection, schedule: Q01DX010 (sc), vehicle: saline) was 91 % of control.

With `O=C1NCC(Br)C(=O)N1` (centres undefined) the T/C [3] was 100 % of control.

With `O=c1[nH]c(=O)n(C2CC(O)C(CO)O2)cc1I` (centres undefined) the T/C [4] was 55 % of control, the T/C [5] was 38 % of control and the T/C [6] was 48 % of control.

In the case of `c1ccc([P+](c2ccccc2)(c2ccccc2)c2ccccc2)cc1`, the T/C (dose: 5.0 mg/kg/injection, schedule: Q04DX003 (sc), vehicle: saline) is reported as 80 % of control, the T/C (dose: 10.0 mg/kg/injection, schedule: Q04DX003 (sc), vehicle: saline) is reported as 69 % of control and the T/C [7] is reported as 61 % of control.

With `COC1CC(C)C(OC)c2cc(O)cc(c2O)NC(=O)/C(C)=C/C=C\C(C)C(OC(N)=O)/C(C)=C\C(C)C1OC` (centres undefined) the T/C (dose: 12.5 mg/kg/injection, schedule: Q04DX003 (sc), vehicle: saline + alcohol) was 103 % of control, the T/C (dose: 25.0 mg/kg/injection, schedule: Q04DX003 (sc), vehicle: saline + alcohol) was 104 % of control and the T/C (dose: 50.0 mg/kg/injection, schedule: Q04DX003 (sc), vehicle: saline + alcohol) was 90 % of control. For the same compound, the T/C (dose: 100.0 mg/kg/injection, schedule: Q04DX003 (sc), vehicle: saline + alcohol) was 109 % of control.

`Cc1cc(=O)n2c3c(c4c(cc13)c(CN(C)C)cc(=O)n4C)OC2` was tested, and the T/C [8] was 109 % of control, the T/C [3] was 151 % of control and the T/C [1] was 80 % of control.

In the case of `COc1cc(C[C@H]2c3cc(OC)c(OC)cc3CCN2C)c(Oc2cc3c(cc2OC)-c2c(OC)c(OC)cc4c2[C@H](C3)N(C)CC4)cc1OC`, the T/C [4] is reported as 95 % of control, the T/C [5] is reported as 67 % of control and the T/C [6] is reported as 75 % of control. For the same compound, the T/C (dose: 800.0 mg/kg/injection, schedule: Q01DX010 (sc), vehicle: saline with Tween-80) was 71 % of control.

For `CN(C)[C@@H]1C(=O)C(C(=O)NCN2CCN(C(=N)N=C(N)N)CC2)=C(O)[C@@]2(O)C(=O)C3=C(O)c4c(O)cccc4[C@@](C)(O)[C@H]3C[C@@H]12`, the T/C (dose: 2.5 mg/kg/injection, schedule: Q04DX003 (ip), vehicle: suspension in saline) was 100 % of control and the T/C (dose: 5.0 mg/kg/injection, schedule: Q04DX003 (ip), vehicle: suspension in saline) was 28 % of control.

`O=C(O)C(CSC(c1ccccc1)(c1ccccc1)c1ccccc1)N=Cc1cccs1` (centres undefined) was tested, and the T/C (dose: 800.0 mg/kg/injection, schedule: Q04DX003 (sc), vehicle: suspension in saline) was 67 % of control.

`Cc1ccc(NN=O)nc1` was tested, and the T/C (dose: 18.7 mg/kg/injection, schedule: Q04DX003 (ip), vehicle: water) was 16 % of control and the T/C (dose: 37.5 mg/kg/injection, schedule: Q04DX003 (ip), vehicle: water) was 8 % of control.

For `CN(C)CCCNc1c2ccccc2nc2cccc([N+](=O)[O-])c12`, the T/C (dose: 0.37 mg/kg/injection, schedule: Q04DX003 (sc), vehicle: saline) was 78 % of control.

In the case of `CN(C)C=O`, the T/C [9] is reported as 10 % of control, the T/C (dose: 1896.0 mg/kg/injection, schedule: Q01DX010 (sc), vehicle: suspension in saline) is reported as 1 % of control and the T/C (dose: 2844.0 mg/kg/injection, schedule: Q01DX010 (sc), vehicle: suspension in saline) is reported as -44 % of control. The T/C (dose: 4266.0 mg/kg/injection, schedule: Q01DX010 (sc), vehicle: suspension in saline) was -11 % of control.

With `Nc1ncn(C2OC(CO)C(O)C2O)c(=O)n1` (centres undefined) the T/C (dose: 0.38 mg/kg/injection, schedule: Q01DX010 (sc), vehicle: saline) was 69 % of control, the T/C (dose: 0.75 mg/kg/injection, schedule: Q01DX010 (sc), vehicle: saline) was 58 % of control and 68 % of control and the T/C (dose: 1.5 mg/kg/injection, schedule: Q01DX010 (sc), vehicle: saline) was 25 % of control. For the same compound, the T/C (dose: 2.5 mg/kg/injection, schedule: Q04DX003 (sc), vehicle: saline) was 50 % of control, the T/C [7] was 6 % of control and 14 % of control and the T/C (dose: 150.0 mg/kg/injection, schedule: Q04DX003 (sc), vehicle: saline) was 8 % of control. For the same compound, the T/C (dose: 200.0 mg/kg/injection, schedule: Q04DX003 (sc), vehicle: saline) was 52 % of control, the T/C (dose: 200.0 mg/kg/injection, schedule: Q04DX003 (sc), vehicle: suspension in saline) was 5 % of control and 7 % of control and the T/C (dose: 300.0 mg/kg/injection, schedule: Q04DX003 (sc), vehicle: saline) was 7 % of control. For the same compound, the T/C (dose: 400.0 mg/kg/injection, schedule: Q04DX003 (sc), vehicle: saline) was 15 % of control, the T/C (dose: 600.0 mg/kg/injection, schedule: Q04DX003 (sc), vehicle: saline) was 2 % of control and the T/C (dose: 800.0 mg/kg/injection, schedule: Q04DX003 (sc), vehicle: saline) was 5 % of control. For the same compound, the T/C (dose: 1200.0 mg/kg/injection, schedule: Q04DX003 (sc), vehicle: saline) was -29 % of control, the T/C (dose: 1600.0 mg/kg/injection, schedule: Q04DX003 (sc), vehicle: saline) was 2 % of control and the T/C (dose: 1600.0 mg/kg/injection, schedule: Q04DX003 (sc), vehicle: suspension in saline) was 15 % of control.

In the case of `NC(=S)c1ncn(C2OC(CO)C(O)C2O)c1N` (centres undefined), the T/C (dose: 300.0 mg/kg/injection, schedule: Q04DX003 (sc), vehicle: suspension in saline) is reported as 50 % of control, the T/C (dose: 600.0 mg/kg/injection, schedule: Q04DX003 (sc), vehicle: suspension in saline) is reported as 89 % of control and the T/C (dose: 1200.0 mg/kg/injection, schedule: Q04DX003 (sc), vehicle: suspension in saline) is reported as 95 % of control. For the same compound, the T/C (dose: 2400.0 mg/kg/injection, schedule: Q04DX003 (sc), vehicle: suspension in saline) was 99 % of control.

In the case of `Cc1c(N)nc(C(CC(N)=O)NCC(N)C(N)=O)nc1C(=O)NC(C(=O)NC(C)C(O)C(C)C(=O)NC(C(=O)NCCc1nc(-c2nc(C(=O)NCCCNCCCc3ccccn3)cs2)cs1)C(C)O)C(OC1OC(CO)C(O)C(O)C1OC1OC(CO)C(O)C(OC(N)=O)C1O)c1cnc[nH]1` (centres undefined), the T/C (dose: 9.0 mg/kg/injection, schedule: Q04DX003 (sc), vehicle: water) is reported as 77 % of control, the T/C (dose: 18.0 mg/kg/injection, schedule: Q04DX003 (sc), vehicle: water) is reported as 66 % of control and the T/C (dose: 36.0 mg/kg/injection, schedule: Q04DX003 (sc), vehicle: water) is reported as 75 % of control. For the same compound, the T/C (dose: 72.0 mg/kg/injection, schedule: Q04DX003 (sc), vehicle: water) was 44 % of control.

In the case of `COc1ccc(S(=O)(=O)N/N=C/C(=O)O)cc1`, the T/C (dose: 12.5 mg/kg/injection, schedule: Q01DX010 (sc), vehicle: saline with Tween-80) is reported as 116 % of control.

For `CC(C)NC(=O)OCc1c(COC(=O)NC(C)C)c(-c2ccc(Cl)c(Cl)c2)n2c1CCC2`, the T/C (dose: 25.0 mg/kg/injection, schedule: Q01DX010 (sc), vehicle: distilled water + Tween-80) was -21 % of control, the T/C (dose: 50.0 mg/kg/injection, schedule: Q01DX010 (sc), vehicle: distilled water + Tween-80) was 16 % of control and the T/C (dose: 150.0 mg/kg/injection, schedule: Q04DX003 (ip), vehicle: saline) was 21 % of control. The T/C (dose: 300.0 mg/kg/injection, schedule: Q04DX003 (ip), vehicle: saline) was 28 % of control.

`NC(=O)NO` was tested, and the T/C [9] was 44 % of control and the T/C (dose: 400.0 mg/kg/injection, schedule: Q01DX010 (sc), vehicle: saline) was 49 % of control.

In the case of `O=[n+]1c2ccccc2n([O-])c2ccccc21.[Cl][Ni][Cl]`, the T/C [8] is reported as 90 % of control and the T/C [3] is reported as 53 % of control.

`S=C=NCCc1ccccc1` was tested, and the T/C (dose: 25.0 mg/kg/injection, schedule: Q01DX010 (sc), vehicle: saline with Tween-80) was 161 % of control, the T/C (dose: 50.0 mg/kg/injection, schedule: Q01DX010 (sc), vehicle: saline with Tween-80) was 156 % of control and the T/C [4] was 72 % of control. The T/C [5] was 113 % of control.

In the case of `CC1(C)OCC2OC=CC(=O)C2O1` (centres undefined), the T/C [3] is reported as 79 % of control, the T/C [1] is reported as 73 % of control and the T/C [2] is reported as 112 % of control.
